Results reported in patent US20260234124A1, “Substituted Pyrazolyl-Pyridinyl Compounds as Ligand Directed Degraders of IRAK3” (Celgene Corporation, priority 2022, published 2026).

The compounds below were run against T1, IRAK3 (Homo sapiens, UniProt Q9Y616) (assay: IRAK endogenous HTRF degradation assay (Total-IRAK3 HTRF kit)). Conditions: endogenous IRAK3, overnight incubation; % Dmax = 100 − Ymin.
T1 sequence (Q9Y616 1-596): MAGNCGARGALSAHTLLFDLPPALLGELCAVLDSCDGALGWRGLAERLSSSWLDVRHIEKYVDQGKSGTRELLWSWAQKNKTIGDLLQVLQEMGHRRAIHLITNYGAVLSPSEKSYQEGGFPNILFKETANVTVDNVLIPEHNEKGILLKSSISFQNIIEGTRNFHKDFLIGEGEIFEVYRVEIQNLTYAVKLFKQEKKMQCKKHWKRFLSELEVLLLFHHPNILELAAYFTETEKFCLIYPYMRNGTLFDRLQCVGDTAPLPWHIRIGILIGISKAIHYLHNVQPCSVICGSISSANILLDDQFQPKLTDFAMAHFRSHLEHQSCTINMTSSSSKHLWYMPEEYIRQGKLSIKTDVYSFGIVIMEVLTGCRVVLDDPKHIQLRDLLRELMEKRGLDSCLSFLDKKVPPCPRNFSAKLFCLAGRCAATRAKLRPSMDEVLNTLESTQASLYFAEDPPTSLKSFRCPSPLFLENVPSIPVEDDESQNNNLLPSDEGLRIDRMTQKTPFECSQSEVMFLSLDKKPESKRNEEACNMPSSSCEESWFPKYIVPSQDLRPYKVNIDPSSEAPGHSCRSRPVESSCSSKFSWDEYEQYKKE
Assay type: cell-based
Design: IRAK Endogenous HTRF Degradation Assay; endogenous in cells
Procedure: Example B2. IRAK Endogenous HTRF Degradation Assay
Cells (~50k) were plated in Cisbio 96-well low volume white plates (Cisbio: cat #66PL96005). Compounds were dissolved in DMSO and a 3-fold serial dilution was performed using a TECAN D300E. Cells were incubated with the compound overnight. Total-IRAK3 HTRF kit from Cisbio was used for degradation analysis (Cisbio: 63ADK101PEH). Cryptate and D2 antibodies were diluted in Detection buffer as per manufacturers recommendation. Then 2 μL of each solution was added to 16 μL lysate. Buffer control (lysis buffer detection buffer), Cryptate control (lysis buffer+cryptate antibody+detection buffer), and Negative control (lysis buffer+cryptate antibody+D2 antibody) were made as per manufacturers recommendation. Post incubation with antibodies the HTRF signal was measured using a Perkin Elmer Envision reader and the HTRF signal was calculated using formula: (Emission at 665 nm/Emission at 615 nm)*10,000. All HTRF values were normalized to the average value of DMSO. The average value of the DMSO control wells were set to equal 100% of the relative IRAK3 protein levels. Normalized luminescence values were plotted on a graph as a function of compound concentration. Compound concentration was plotted on the x-axis and the corresponding normalized IRAK3 protein levels on the y-axis. The EC50 value (the half-maximum effective concentration) of a compound for the degradation of the IRAK3 was calculated using a four-parameter logistic model (sigmoidal dose-response model) (FIT=(A+{(B−A)/1+[(C/x)D]})) where C is the inflection point (EC50), D is the […], and A and B are the low and high limits of the fit, respectively). The Ymin was calculated by determining the lowest percentage of target protein remaining following compound treatment. Dmax was calculated from Ymin (% Dmax=100−Ymin).
Using these assays, IC50, Dmax, EC50, and DC50 values of the following compounds were determined. Dmax is defined as the maximum percent degradation achieved and DC50 is the concentration at which 50% degradation is achieved.

Structure (SMILES)	Dmax
C[C@@H](Oc1cc(-c2cnn(C3CCN(C4CCC5(CC4)CCN(C(=O)c4cccc(NC6CCC(=O)NC6=O)c4)CC5)CC3)c2)cnc1N)c1c(Cl)ccc(F)c1Cl (stereo partly drawn) [Compound 22, 3-((3-(9-(4-(4-(6-Amino-5-((R)-1-(2,6-dichloro-3-fluorophenyl)ethoxy)pyridin-3-yl)-1H-pyrazol-1-yl)piperidin-1-yl)-3-azaspiro[5.5]undecane-3-carbonyl)phenyl)amino)piperidine-2,6-dione]	81%
C[C@@H](Oc1cc(-c2cnn(C3CCN(CCNC(=O)COc4ccc5c(c4)C(=O)N(C4CCC(=O)NC4=O)C5=O)CC3)c2)cnc1N)c1c(Cl)ccc(F)c1Cl (stereo partly drawn) [Compound 13, N-(2-(4-(4-(6-amino-5-((R)-1-(2,6-dichloro-3-fluorophenyl)ethoxy)pyridin-3-yl)-1H-pyrazol-1-yl)piperidin-1-yl)ethyl)-2-((2-(2,6-dioxopiperidin-3-yl)-1,3-dioxoisoindolin-5-yl)oxy)acetamide]	65%
C[C@@H](Oc1cc(-c2cnn(C3CCN(CCOCCOCCOCCOCCNC(=O)COc4ccc5c(c4)C(=O)N(C4CCC(=O)NC4=O)C5=O)CC3)c2)cnc1N)c1c(Cl)ccc(F)c1Cl (stereo partly drawn) [Compound 17, N-(14-(4-(4-(6-amino-5-((R)-1-(2,6-dichloro-3-fluorophenyl)ethoxy)pyridin-3-yl)-1H-pyrazol-1-yl)piperidin-1-yl)-3,6,9,12-tetraoxatetradecyl)-2-((2-(2,6-dioxopiperidin-3-yl)-1,3-dioxoisoindolin-5-yl)oxy)acetamide]	32%
Cc1ncsc1-c1ccc(CNC(=O)[C@@H]2C[C@@H](O)CN2C(=O)[C@@H](NC(=O)COCCOCCOCCOCCN2CCC(n3cc(-c4cnc(N)c(O[C@H](C)c5c(Cl)ccc(F)c5Cl)c4)cn3)CC2)C(C)(C)C)cc1 [Compound 4, (2S,4R)-1-((S)-17-(4-(4-(6-amino-5-((R)-1-(2,6-dichloro-3-fluorophenyl)ethoxy)pyridin-3-yl)-1H-pyrazol-1-yl)piperidin-1-yl)-2-(tert-butyl)-4-oxo-6,9,12,15-tetraoxa-3-azaheptadecanoyl)-4-hydroxy-N-(4-(4-methylthiazol-5-yl)benzyl)pyrrolidine-2-carboxamide]	21%

More lines, now with the values ahead:

Dmax	Structure (SMILES)
20%	C[C@@H](Oc1cc(-c2cnn(C3CCN(CCOCCOCCNC(=O)COc4ccc5c(c4)C(=O)N(C4CCC(=O)NC4=O)C5=O)CC3)c2)cnc1N)c1c(Cl)ccc(F)c1Cl (stereo partly drawn) [Compound 15, N-(2-(2-(2-(4-(4-(6-amino-5-((R)-1-(2,6-dichloro-3-fluorophenyl)ethoxy)pyridin-3-yl)-1H-pyrazol-1-yl)piperidin-1-yl)ethoxy)ethoxy)ethyl)-2-((2-(2,6-dioxopiperidin-3-yl)-1,3-dioxoisoindolin-5-yl)oxy)acetamide]
3%	C[C@@H](Oc1cc(-c2cnn(C3CCN(CCOCCNC(=O)COc4ccc5c(c4)C(=O)N(C4CCC(=O)NC4=O)C5=O)CC3)c2)cnc1N)c1c(Cl)ccc(F)c1Cl (stereo partly drawn) [Compound 14, N-(2-(2-(4-(4-(6-amino-5-((R)-1-(2,6-dichloro-3-fluorophenyl)ethoxy)pyridin-3-yl)-1H-pyrazol-1-yl)piperidin-1-yl)ethoxy)ethyl)-2-((2-(2,6-dioxopiperidin-3-yl)-1,3-dioxoisoindolin-5-yl)oxy)acetamide]
23%	C[C@@H](Oc1cc(-c2cnn(C3CCN(CCOCCNC(=O)COc4cccc5c4C(=O)N(C4CCC(=O)NC4=O)C5=O)CC3)c2)cnc1N)c1c(Cl)ccc(F)c1Cl (stereo partly drawn) [Compound 9, N-(2-(2-(4-(4-(6-amino-5-((R)-1-(2,6-dichloro-3-fluorophenyl)ethoxy)pyridin-3-yl)-1H-pyrazol-1-yl)piperidin-1-yl)ethoxy)ethyl)-2-((2-(2,6-dioxopiperidin-3-yl)-1,3-dioxoisoindolin-4-yl)oxy)acetamide]
37%	C[C@@H](Oc1cc(-c2cnn(C3CCN(CCOCCOCCNC(=O)COc4cccc5c4C(=O)N(C4CCC(=O)NC4=O)C5=O)CC3)c2)cnc1N)c1c(Cl)ccc(F)c1Cl (stereo partly drawn) [Compound 10, N-(2-(2-(2-(4-(4-(6-amino-5-((R)-1-(2,6-dichloro-3-fluorophenyl)ethoxy)pyridin-3-yl)-1H-pyrazol-1-yl)piperidin-1-yl)ethoxy)ethoxy)ethyl)-2-((2-(2,6-dioxopiperidin-3-yl)-1,3-dioxoisoindolin-4-yl)oxy)acetamide]
